These compounds were tested on JAK1-dependent STAT6 phosphorylation downstream of IL-13 stimulation in TF-1 human erythroleukemia cells (assay: cells). Conditions: TF-1, read-out: IL-13-pSTAT6 IC50.

| SMILES | IC50 [nM] |
| --- | --- |
| CN1CCC(N(C)C(=O)c2ccc(Nc3nc4c(C5=CCN(C(=O)C6CC6(C)C)CC5)cccn4n3)cc2)CC1 (stereo not drawn) [Example 2-160, 4-[[8-[1-(2,2-dimethylcyclopropanecarbonyl)-3,6-dihydro-2H-pyridin-4-yl]-[1,2,4]triazolo[1,5-a]pyridin-2-yl]amino]-N-methyl-N-(1-methyl-4-piperidyl)benzamide] | 47 |
| CN1CCC(N(C)C(=O)c2ccc(Nc3nc4c(C5=CCN(C(=O)C6C(C)(C)C6(C)C)CC5)cccn4n3)cc2)CC1 [Example 2-161, N-methyl-N-(1-methyl-4-piperidyl)-4-[[8-[1-(2,2,3,3-tetramethylcyclopropanecarbonyl)-3,6-dihydro-2H-pyridin-4-yl]-[1,2,4]triazolo[1,5-a]pyridin-2-yl]amino]benzamide] | 44.2 |
| CCOC(=O)N1CC=C(c2cccn3nc(Nc4ccc(C(=O)N5CC(CN)C5)cc4)nc23)CC1 [Example 2-165, ethyl 4-[2-[4-[3-(aminomethyl)azetidine-1-carbonyl]anilino]-[1,2,4]triazolo[1,5-a]pyridin-8-yl]-3,6-dihydro-2H-pyridine-1-carboxylate] | 187 |
| O=C(CCC(F)(F)F)N1CC=C(c2cccn3nc(Nc4ccc(C(=O)N5CCC6(CCNCC6)C5)cc4)nc23)CC1 [Example 2-187, 1-[4-[2-[4-(2,8-diazaspiro[4.5]decane-2-carbonyl)anilino]-[1,2,4]triazolo[1,5-a]pyridin-8-yl]-3,6-dihydro-2H-pyridin-1-yl]-4,4,4-trifluoro-butan-1-one] | 652 |
| O=C(NC1COC2(CCNCC2)C1)c1ccc(Nc2nc3c(C4=CCN(C(=O)CCC(F)(F)F)CC4)cccn3n2)cc1 (stereo not drawn) [Example 2-188, N-(1-oxa-8-azaspiro[4.5]decan-3-yl)-4-[[8-[1-(4,4,4-trifluorobutanoyl)-3,6-dihydro-2H-pyridin-4-yl]-[1,2,4]triazolo[1,5-a]pyridin-2-yl]amino]benzamide] | 239 |
| O=C(NCC1CCC2(CCNCC2)CO1)c1ccc(Nc2nc3c(C4=CCN(C(=O)CCC(F)(F)F)CC4)cccn3n2)cc1 (stereo not drawn) [Example 2-189, N-(2-oxa-9-azaspiro[5.5]undecan-3-ylmethyl)-4-[[8-[1-(4,4,4-trifluorobutanoyl)-3,6-dihydro-2H-pyridin-4-yl]-[1,2,4]triazolo[1,5-a]pyridin-2-yl]amino]benzamide] | 110 |
| O=C(CCC(F)(F)F)N1CC=C(c2cccn3nc(Nc4ccc(C(=O)N5CCCC6(CNCCO6)C5)cc4)nc23)CC1 (stereo not drawn) [Example 2-190, 4,4,4-trifluoro-1-[4-[2-[4-(1-oxa-4,8-diazaspiro[5.5]undecane-8-carbonyl)anilino]-[1,2,4]triazolo[1,5-a]pyridin-8-yl]-3,6-dihydro-2H-pyridin-1-yl]butan-1-one] | 40.9 |
| O=C(CCC(F)(F)F)N1CC=C(c2cccn3nc(Nc4ccc(C(=O)N5CCC6(CCCNC6)CC5)cc4)nc23)CC1 [Example 2-191, 1-[4-[2-[4-(2,9-diazaspiro[5.5]undecane-9-carbonyl)anilino]-[1,2,4]triazolo[1,5-a]pyridin-8-yl]-3,6-dihydro-2H-pyridin-1-yl]-4,4,4-trifluoro-butan-1-one] | 63.7 |
| O=C(NCC1CCCNC1)c1ccc(Nc2nc3c(C4=CCN(C(=O)CCC(F)(F)F)CC4)cccn3n2)cc1 (stereo not drawn) [Example 2-192, N-(3-piperidylmethyl)-4-[[8-[1-(4,4,4-trifluorobutanoyl)-3,6-dihydro-2H-pyridin-4-yl]-[1,2,4]triazolo[1,5-a]pyridin-2-yl]amino]benzamide] | 213 |
| O=C(NCCC1CCCNC1)c1ccc(Nc2nc3c(C4=CCN(C(=O)CCC(F)(F)F)CC4)cccn3n2)cc1 (stereo not drawn) [Example 2-193, N-[2-(3-piperidyl)ethyl]-4-[[8-[1-(4,4,4-trifluorobutanoyl)-3,6-dihydro-2H-pyridin-4-yl]-[1,2,4]triazolo[1,5-a]pyridin-2-yl]amino]benzamide] | 278 |
| NCCNC(=O)c1ccc(Nc2nc3c(C4=CCN(C(=O)CCC(F)(F)F)CC4)cccn3n2)cc1 [Example 2-194, N-(2-aminoethyl)-4-[[8-[1-(4,4,4-trifluorobutanoyl)-3,6-dihydro-2H-pyridin-4-yl]-[1,2,4]triazolo[1,5-a]pyridin-2-yl]amino]benzamide] | 94.2 |
| O=C(CCC(F)(F)F)N1CC=C(c2cccn3nc(Nc4ccc(C(=O)N5CCCNCC5)cc4)nc23)CC1 [Example 2-195, 1-[4-[2-[4-(1,4-diazepane-1-carbonyl)anilino]-[1,2,4]triazolo[1,5-a]pyridin-8-yl]-3,6-dihydro-2H-pyridin-1-yl]-4,4,4-trifluoro-butan-1-one] | 163 |
| O=C(CCC(F)(F)F)N1CC=C(c2cccn3nc(Nc4ccc(C(=O)N5CCC6(CCN6)CC5)cc4)nc23)CC1 [Example 2-197, 1-[4-[2-[4-(1,7-diazaspiro[3.5]nonane-7-carbonyl)anilino]-[1,2,4]triazolo[1,5-a]pyridin-8-yl]-3,6-dihydro-2H-pyridin-1-yl]-4,4,4-trifluoro-butan-1-one] | 295 |
| O=C(CCC(F)(F)F)N1CC=C(c2cccn3nc(Nc4ccc(C(=O)N5CCC6(CCCN6)CC5)cc4)nc23)CC1 [Example 2-198, 1-[4-[2-[4-(1,8-diazaspiro[4.5]decane-8-carbonyl)anilino]-[1,2,4]triazolo[1,5-a]pyridin-8-yl]-3,6-dihydro-2H-pyridin-1-yl]-4,4,4-trifluoro-butan-1-one] | 53.9 |

Stronger by IC50, values ahead:

| IC50 [nM] | SMILES |
| --- | --- |
| 7.3 | CN(C)[C@H]1CCN(C(=O)c2ccc(Nc3nc4c(C5=CCN(C(=O)CCC(F)(F)F)CC5)cccn4n3)cc2)C1 [Example 2-158, 1-[4-[2-[4-[(3S)-3-(dimethylamino)pyrrolidine-1-carbonyl]anilino]-[1,2,4]triazolo[1,5-a]pyridin-8-yl]-3,6-dihydro-2H-pyridin-1-yl]-4,4,4-trifluoro-butan-1-one] |
| 35.1 | CN1CCN(C(=O)C2CN(C(=O)c3ccc(Nc4nc5c(C6=CCN(C(=O)CCC(F)(F)F)CC6)cccn5n4)cc3)C2)CC1 [Example 2-159, 4,4,4-trifluoro-1-[4-[2-[4-[3-(4-methylpiperazine-1-carbonyl)azetidine-1-carbonyl]anilino]-[1,2,4]triazolo[1,5-a]pyridin-8-yl]-3,6-dihydro-2H-pyridin-1-yl]butan-1-one] |
| 28.4 | CN1CCC(N(C)C(=O)c2ccc(Nc3nc4c(C5=CCN(C(=O)CC(F)(F)F)CC5)cccn4n3)cc2)CC1 [Example 2-163, N-methyl-N-(1-methyl-4-piperidyl)-4-[[8-[1-(3,3,3-trifluoropropanoyl)-3,6-dihydro-2H-pyridin-4-yl]-[1,2,4]triazolo[1,5-a]pyridin-2-yl]amino]benzamide] |
| 15.8 | CCOC(=O)N1CC=C(c2cccn3nc(Nc4ccc(C(=O)NCCN5CC(C)OC(C)C5)cc4)nc23)CC1 (stereo not drawn) [Example 2-167, ethyl 4-[2-[4-[2-(2,6-dimethylmorpholin-4-yl)ethylcarbamoyl]anilino]-[1,2,4]triazolo[1,5-a]pyridin-8-yl]-3,6-dihydro-2H-pyridine-1-carboxylate] |
| 14.8 | CCOC(=O)N1CC=C(c2cccn3nc(Nc4ccc(C(=O)NC(C)c5cccc(C)n5)cc4)nc23)CC1 (stereo not drawn) [Example 2-170, ethyl 4-[2-[4-[1-(6-methyl-2-pyridyl)ethylcarbamoyl]anilino]-[1,2,4]triazolo[1,5-a]pyridin-8-yl]-3,6-dihydro-2H-pyridine-1-carboxylate] |
| 12 | CCOC(=O)N1CC=C(c2cccn3nc(Nc4ccc(C(=O)NCCc5ccncc5)cc4)nc23)CC1 [Example 2-172, ethyl 4-[2-[4-[2-(4-pyridyl)ethylcarbamoyl]anilino]-[1,2,4]triazolo[1,5-a]pyridin-8-yl]-3,6-dihydro-2H-pyridine-1-carboxylate] |
| 12.2 | CCOC(=O)N1CC=C(c2cccn3nc(Nc4ccc(C(=O)N5CC6(CCN(C)CC6)C5)cc4)nc23)CC1 [Example 2-175, ethyl 4-[2-[4-(7-methyl-2,7-diazaspiro[3.5]nonane-2-carbonyl)anilino]-[1,2,4]triazolo[1,5-a]pyridin-8-yl]-3,6-dihydro-2H-pyridine-1-carboxylate] |
| 8.1 | CCOC(=O)N1CC=C(c2cccn3nc(Nc4ccc(C(=O)N5CC6(CCCN6C)C5)cc4)nc23)CC1 [Example 2-176, ethyl 4-[2-[4-(5-methyl-2,5-diazaspiro[3.4]octane-2-carbonyl)anilino]-[1,2,4]triazolo[1,5-a]pyridin-8-yl]-3,6-dihydro-2H-pyridine-1-carboxylate] |
| 15.4 | CCOC(=O)N1CC=C(c2cccn3nc(Nc4ccc(C(=O)NCc5cccnc5C)cc4)nc23)CC1 [Example 2-177, ethyl 4-[2-[4-[(2-methyl-3-pyridyl)methylcarbamoyl]anilino]-[1,2,4]triazolo[1,5-a]pyridin-8-yl]-3,6-dihydro-2H-pyridine-1-carboxylate] |
| 32.6 | CCOC(=O)N1CC=C(c2cccn3nc(Nc4ccc(C(=O)NCc5cncc(C)c5)cc4)nc23)CC1 [Example 2-178, ethyl 4-[2-[4-[(5-methyl-3-pyridyl)methylcarbamoyl]anilino]-[1,2,4]triazolo[1,5-a]pyridin-8-yl]-3,6-dihydro-2H-pyridine-1-carboxylate] |
| 29.9 | CCOC(=O)N1CC=C(c2cccn3nc(Nc4ccc(C(=O)N5CC6(CCCNC6)C5)cc4)nc23)CC1 [Example 2-185, ethyl 4-[2-[4-(2,8-diazaspiro[3,5]nonane-2-carbonyl)anilino]-[l,2,4]triazolo[l,5-a]pyridin-8-yl]-3,6-dihydro-2H-pyridine-1-carboxylate] |
| 23.3 | O=C(CCC(F)(F)F)N1CC=C(c2cccn3nc(Nc4ccc(C(=O)N5CC6(CCCNC6)C5)cc4)nc23)CC1 [Example 2-186, 1-[4-[2-[4-(2,8-diazaspiro[3.5]nonane-2-carbonyl)anilino]-[1,2,4]triazolo[1,5-a]pyridin-8-yl]-3,6-dihydro-2H-pyridin-1-yl]-4,4,4-trifluoro-butan-1-one] |
| 29.9 | CC1CN(C(=O)c2ccc(Nc3nc4c(C5=CCN(C(=O)CCC(F)(F)F)CC5)cccn4n3)cc2)CCN1 (stereo not drawn) [Example 2-196, 4,4,4-trifluoro-1-[4-[2-[4-(3-methylpiperazine-1-carbonyl)anilino]-[1,2,4]triazolo[1,5-a]pyridin-8-yl]-3,6-dihydro-2H-pyridin-1-yl]butan-1-one] |
